According to patent publication US9877957B2, “Tetrahydroisoquinoline derivatives useful as inhibitors of diacylglyceride O-acyltransferase 2” (Merck Sharp & Dohme Corp., priority 2014, dated 2018):

Target: hDGAT2 (Homo sapiens (Human), UniProt Q96PD7)
Experiment: DGAT2 Enzymatic Activity Assay (triolein formation, LC/MS/MS)
Assay type: biochemical
Settings: Sf-9 membrane prep expressing hDGAT2; 25 μM diolein, 10 μM oleoyl-CoA; room temperature; read-out: IC50 values for inhibition of DGAT2
Procedure: In Vitro DGAT2 ASSAYS and Determination of IC50 Values for DGAT2 Inhibitors
Insect Cell Expression and Membrane Preparation
Sf-9 insect cells were maintained in Grace's insect cell culture medium with 10% heated-inactivated fetal bovine serum, 1% Pluronic F-68 and 0.14 μg/ml Kanamycine sulfate in Erlenmeyer flasks at 28° C. in a shaker incubator. After infection with untagged hDGAT2 baculovirus at multiplicity of infection (MOI) 0.1 for 48 hours, cells were harvested. Cell pellets were suspended in buffer containing 10 mM Tris-HCl (pH 7.5), 1 mM EDTA (pH 8.0), 250 mM sucrose and Complete Protease Inhibitor Cocktail (Roche Diagnostics Corp., Indianapolis, Ill.), and sonicated on ice. Membrane fractions were isolated by ultracentrifugation (100,000× g pellet), resuspended in the same buffer, and frozen (−80° C.) for later use. The protein concentration was determined with the BCA Protein Assay kit (Pierce Biotechnology Inc., Rockford, Ill.). Expression of protein levels was analyzed by immunoblotting with goat polyclonal DGAT2 antibody C-15 and donkey anti-goat IgG HRP (Santa Cruz Biotechnology, Inc., Santa Cruz, Calif.) followed by detection with ECL reagent (GE Healthcare, Piscataway, N.J.).
LC/MS/MS analyses were performed using Thermal Fisher's LX4-TSQ Vantage system. This system consists of an Agilent binary high-performance liquid chromatography (HPLC) pumps and a TSQ Vantage triple quadrupole MS/MS instrument. For each sample, 2 μL samples from the top organic layer of in-plate liquid-liquid extraction were injected onto a Thermo Betabasic C4 column (2.1 mm×20 mm, 5 μm particle size). The samples were then eluted using the following conditions; mobile phase: methanol/water with 0.1% ammonium format=92/8 (v/v), flow rate: 1 mL/min, temperature: 25° C. Data was acquired in positive mode using a heated electrospray ionization (HESI) interface. The operational parameters for the TSQ Vantage MS/MS instrument were a spray voltage of 3000 V, capillary temperature of 280° C., vaporizer temperature 400° C., shealth gas 60 arbitrary unit, Aux gas 40 arbitrary units, S-lens 113 and collision gas 0.16 Pascals. […] (SRM) chromatograms of triolein (Q1: 902.9>Q3:602.3) and internal standard (Q1: 902.9>Q3:602.3) were collected for 40 sec. The peak area was integrated by Xcalibur Quan software. The ratio between the triolein generated in the reaction and spiked in internal standard were used to generate percentage inhibition and IC50 values. Compound percentage inhibition was calculated by the following formula: Inhibition %=1−[(compound response−low control)/(high control−low control)]×100%. Potent compounds were titrated and IC50 were calculated by 4 parameter sigmoidal curve fitting formula.
DGAT2 Enzymatic Activity Assay
DGAT2 activity was determined by measuring the amount of enzymatic product triolein (1,2,3-Tri(cis-9-octadecenoyl)glycerol) using the membrane prep mentioned above. The assay was carried out in deep well 384 plates in a final volume of 40 μL at room temperature. The assay mixture contained the following: assay buffer (100 mM Tris·Cl, pH 7.0, 20 mM MgCl2, 5% ethanol), 25 μM of diolein, 10 μM of oleoyl-CoA and 10 ng/μL of DGAT2 membrane.

Chain of hDGAT2 (Q96PD7 whole entry): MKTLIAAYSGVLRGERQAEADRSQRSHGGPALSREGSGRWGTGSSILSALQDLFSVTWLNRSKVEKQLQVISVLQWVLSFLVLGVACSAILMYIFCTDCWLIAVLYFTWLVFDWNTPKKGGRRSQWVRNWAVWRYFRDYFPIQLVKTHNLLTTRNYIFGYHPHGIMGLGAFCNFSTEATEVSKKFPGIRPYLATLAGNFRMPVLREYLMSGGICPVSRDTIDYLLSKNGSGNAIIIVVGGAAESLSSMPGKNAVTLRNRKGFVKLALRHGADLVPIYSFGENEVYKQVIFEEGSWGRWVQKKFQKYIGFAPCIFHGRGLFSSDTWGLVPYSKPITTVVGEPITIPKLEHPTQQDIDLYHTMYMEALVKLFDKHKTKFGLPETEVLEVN

Structure (SMILES): CC(CNC(=O)c1ccc(-c2cccc(C(F)(F)F)c2)c2c1CN(C(=O)NC(C)(C)C)CC2)c1ncco1 (stereo not shown) [Example 45, N^2-(tert-butyl)-N^8-(2-(oxazol-2-yl)propyl)-5-(3-(trifluoromethyl)phenyl)-3,4-dihydroisoquinoline-2,8(1H)-dicarboxamide]
- IC50: 1280 nM

Structure (SMILES): CC(CNC(=O)c1ccc(-c2cccc(C(F)(F)F)c2)c2c1CN(C(=O)NC(C)(C)C)CC2)c1ccno1 (stereo not shown) [Example 46, N^2-(tert-butyl)-N^8-(2-(isoxazol-5-yl)propyl)-5-(3-(trifluoromethyl)phenyl)-3,4-dihydroisoquinoline-2,8(1H)-dicarboxamide]
- IC50: 1300 nM

Structure (SMILES): Cc1nnc(CCNC(=O)c2ccc(-c3cccc(C(F)(F)F)c3)c3c2CN(C(=O)NC(C)(C)C)CC3)[nH]1 [Example 47, N^2-(tert-butyl)-N^8-(2-(5-methyl-4H-1,2,4-triazol-3-yl)ethyl)-5-(3-(trifluoromethyl)phenyl)-3,4-dihydroisoquinoline-2,8(1H)-dicarboxamide]
- IC50: 1200 nM

Structure (SMILES): CC(C)(C)NC(=O)N1CCc2c(-c3cccc(C(F)(F)F)c3)ccc(C(=O)NCCn3cncn3)c2C1 [Example 48, N^8-(2-(1H-1,2,4-triazol-1-yl)ethyl)-N^2-(tert-butyl)-5-(3-(trifluoromethyl)phenyl)-3,4-dihydroisoquinoline-2,8(1H)-dicarboxamide]
- IC50: 1410 nM

Structure (SMILES): CC(C)(C)NC(=O)N1CCc2c(-c3cccc(C(F)(F)F)c3)ccc(C(=O)NCCc3cn4cccnc4n3)c2C1 [Example 49, N^2-(tert-butyl)-N^8-(2-(imidazo[1,2-a]pyrimidin-2-yl)ethyl)-5-(3-(trifluoromethyl)phenyl)-3,4-dihydroisoquinoline-2,8(1H)-dicarboxamide]
- IC50: 1570 nM

Structure (SMILES): Cc1noc(C)c1CCNC(=O)c1ccc(-c2cccc(C(F)(F)F)c2)c2c1CN(C(=O)NC(C)(C)C)CC2 [Example 50, N^2-(tert-butyl)-N^8-(2-(3,5-dimethylisoxazol-4-yl)ethyl)-5-(3-(trifluoromethyl)phenyl)-3,4-dihydroisoquinoline-2,8(1H)-dicarboxamide]
- IC50: 1970 nM

Structure (SMILES): CC(C)(C)NC(=O)N1CCc2c(-c3cccc(C(F)(F)F)c3)ccc(C(=O)NCc3nnc4n3CCC4)c2C1 [Example 51, N^2-(tert-butyl)-N^8-((6,7-dihydro-5H-pyrrolo[2,1-c][1,2,4]triazol-3-yl)methyl)-5-(3-(trifluoromethyl)phenyl)-3,4-dihydroisoquinoline-2,8(1H)-dicarboxamide]
- IC50: 2030 nM

Structure (SMILES): CC(C)(C)NC(=O)N1CCc2c(-c3cccc(C(F)(F)F)c3)ccc(C(=O)NCCc3ccc(C(F)(F)F)cc3)c2C1 [Example 52, N^2-(tert-butyl)-N^8-(4-(trifluoromethyl)phenethyl)-5-(3-(trifluoromethyl)phenyl)-3,4-dihydroisoquinoline-2,8(1H)-dicarboxamide]
- IC50: 2420 nM

Structure (SMILES): CC(C)(C)NC(=O)N1CCc2c(-c3cccc(C(F)(F)F)c3)ccc(C(=O)Nc3nonc3-c3nc4ccccc4[nH]3)c2C1 [Example 53, N^8-(4-(1H-benzo[d]imidazol-2-yl)-1,2,5-oxadiazol-3-yl)-N^2-(tert-butyl)-5-(3-(trifluoromethyl)phenyl)-3,4-dihydroisoquinoline-2,8(1H)-dicarboxamide]
- IC50: 3340 nM

Structure (SMILES): CC(C)(C)NC(=O)N1CCc2c(-c3cccc(C(F)(F)F)c3)ccc(C(=O)NCCc3cnc4ccccn34)c2C1 [Example 54, N^2-(tert-butyl)-N^8-(2-(imidazo[1,2-a]pyridin-3-yl)ethyl)-5-(3-(trifluoromethyl)phenyl)-3,4-dihydroisoquinoline-2,8(1H)-dicarboxamide]
- IC50: 3720 nM

Structure (SMILES): CC(C)(C)NC(=O)N1CCc2c(-c3cccc(OC(F)(F)F)c3)ccc(C(=O)NCc3cn4cccnc4n3)c2C1 [Example 55, N^2-(tert-butyl)-N^8-(imidazo[1,2-a]pyrimidin-2-ylmethyl)-5-(3-(trifluoromethoxy)phenyl)-3,4-dihydroisoquinoline-2,8(1H)-dicarboxamide]
- IC50: 2150 nM

Structure (SMILES): Cc1nccn1CCNC(=O)c1ccc(-c2cccc(C(F)(F)F)c2)c2c1CN(C(=O)NC(C)(C)C)CC2 [Example 56, N^2-(tert-butyl)-N^8-(2-(2-methyl-1H-imidazol-1-yl)ethyl)-5-(3-(trifluoromethyl)phenyl)-3,4-dihydroisoquinoline-2,8(1H)-dicarboxamide]
- IC50: 7950 nM

Structure (SMILES): CC(C)(C)NC(=O)N1CCc2c(-c3cccc(OC(F)(F)F)c3)ccc(C(=O)N3CCCCC3c3ccccc3)c2C1 (stereo not shown) [Example 57, N-(tert-butyl)-8-(2-phenylpiperidine-1-carbonyl)-5-(3-(trifluoromethoxy)phenyl)-3,4-dihydroisoquinoline-2(1H)-carboxamide]
- IC50: 8760 nM

Structure (SMILES): CC(C)(C)NC(=O)N1CCc2c(-c3cccc(C(F)(F)F)c3)ccc(C(=O)NCCc3nc4ccc(Cl)cc4[nH]3)c2C1 [Example 58, N^2-(tert-butyl)-N^8-(2-(6-chloro-1H-benzo[d]imidazol-2-yl)ethyl)-5-(3-(trifluoromethyl)phenyl)-3,4-dihydroisoquinoline-2,8(1H)-dicarboxamide]
- IC50: 16.7 nM

Structure (SMILES): COc1ccc2nc(CCNC(=O)c3ccc(-c4cccc(C(F)(F)F)c4)c4c3CN(C(=O)NCC(F)(F)F)CC4)[nH]c2c1 [Example 59, N^8-(2-(6-methoxy-1H-benzo[d]imidazol-2-yl)ethyl)-N^2-(2,2,2-trifluoroethyl)-5-(3-(trifluoromethyl)phenyl)-3,4-dihydroisoquinoline-2,8(1H)-dicarboxamide]
- IC50: 82.9 nM

Structure (SMILES): Cc1nnc(CCNC(=O)c2ccc(-c3cccc(C(F)(F)F)c3)c3c2CN(C(=O)NC(C)(C)C)CC3)[nH]1 [Example 60, N^2-(tert-butyl)-N^8-(2-(5-methyl-4H-1,2,4-triazol-3-yl)ethyl)-5-(3-(trifluoromethyl)phenyl)-3,4-dihydroisoquinoline-2,8(1H)-dicarboxamide]
- IC50: 1350 nM

Structure (SMILES): CC(NC(=O)c1ccc(-c2cccc(C(F)(F)F)c2)c2c1CN(C(=O)NC(C)(C)C)CC2)c1nnc[nH]1 (stereo not shown) [Example 62, N^8-(1-(4H-1,2,4-triazol-3-yl)ethyl)-N^2-(tert-butyl)-5-(3-(trifluoromethyl)phenyl)-3,4-dihydroisoquinoline-2,8(1H)-dicarboxamide]
- IC50: 3840 nM

Structure (SMILES): CC(C)(C)NC(=O)N1CCc2c(-c3cccc(C(F)(F)F)c3)ccc(C(=O)NC3(c4ccccn4)CC3)c2C1 [Example 63, N^2-(tert-butyl)-N^8-(1-(pyridin-2-yl)cyclopropyl)-5-(3-(trifluoromethyl)phenyl)-3,4-dihydroisoquinoline-2,8(1H)-dicarboxamide]
- IC50: 2060 nM

Structure (SMILES): CC(NC(=O)c1ccc(-c2cccc(C(F)(F)F)c2)c2c1CN(C(=O)NC(C)(C)C)CC2)c1cn2ncsc2n1 (stereo not shown) [Example 64, N^2-(tert-butyl)-N^8-(1-(imidazo[2,1-b][1,3,4]thiadiazol-6-yl)ethyl)-5-(3-(trifluoromethyl)phenyl)-3,4-dihydroisoquinoline-2,8(1H)-dicarboxamide]
- IC50: 390 nM

Structure (SMILES): CC(C)(C)NC(=O)N1CCc2c(-c3cccc(C(F)(F)F)c3)ccc(C(=O)NCc3cnc4ccccn34)c2C1 [Example 66, N^2-(tert-butyl)-N^8-(imidazo[1,2-a]pyridin-3-ylmethyl)-5-(3-(trifluoromethyl)phenyl)-3,4-dihydroisoquinoline-2,8(1H)-dicarboxamide]
- IC50: 53.4 nM

Structure (SMILES): Cc1nonc1CNC(=O)c1ccc(-c2cccc(C(F)(F)F)c2)c2c1CN(C(=O)NC(C)(C)C)CC2 [Example 67, N^2-(tert-butyl)-N^8-((4-methyl-1,2,5-oxadiazol-3-yl)methyl)-5-(3-(trifluoromethyl)phenyl)-3,4-dihydroisoquinoline-2,8(1H)-dicarboxamide]
- IC50: 244 nM

Structure (SMILES): Cn1ccnc1CNC(=O)c1ccc(-c2cccc(C(F)(F)F)c2)c2c1CN(C(=O)NC(C)(C)C)CC2 [Example 68, N^2-(tert-butyl)-N^8-((1-methyl-1H-imidazol-2-yl)methyl)-5-(3-(trifluoromethyl)phenyl)-3,4-dihydroisoquinoline-2,8(1H)-dicarboxamide]
- IC50: 474 nM
